Assay results: US5919769A, “Fucose derivatives, drugs containing the same as active ingredient, and intermediates for producing the same” (Kanebo, Ltd, priority 1995, dated 1999)

Key:
[1] = biological target: P-selectin; assay: Inhibitory test on the binding of P-selectin to sialyl Le^X (selectin-IgG chimera); details: inhibition of P-selectin IgG chimera binding to sialyl Le^X-pentaceramide
Protocol: Inhibitory test on the binding of P-selectin to sialyl Le^X :
(§1) The experiment was carried out according to the method using selectin-IgG chimera, which was reported by Foxall, C. et al. (J. Cell Biol., 117, 895-902 (1992)).
(§2) Sialyl Le^X -pentaceramide was dissolved in 50% methanol in distilled water, and the solution was put into a 96-well plate in an amount of 100 pmol/well. The plate was allowed to stand at room temperature overnight, and the solvent therein was evaporated. The plate was washed with distilled water, and subjected to blocking with 50 mM imidazole buffer (pH 7.2) containing 5% BSA (bovine serum albumin) and 1 mM calcium chloride at room temperature for one hour.
(§3) Separately, to 500-fold diluted solution of each biotinylated anti-human IgG Fc and streptavidin-alkaline phosphatase conjugate with a 50 mM imidazole buffer (pH 7.2) containing 1% BSA and 1 mM calcium chloride, P-selectin IgG chimera was added to give a final concentration of 40 μg/ml, and the mixture was incubated at room temperature for 30 minutes to give the complex solution.
(§4) A test compound was dissolved in DMSO (except that the test compound h was dissolved in distilled water) to give 10 mM aqueous solution thereof, which was serially diluted with 50 mM imidazole buffer (pH 7.2) containing 1% BSA and 1 mM calcium chloride to give the solutions in 8 various concentrations (two-fold serial dilution from 20 μM). The test compound solution in each concentration and the above complex solution were mixed in equal volume, and the mixture was incubated at room temperature for 30 minutes to give the reaction solution.
(§5) After the blocking was completed, the blocking solution in the above plate was discarded, and the plate was washed with 50 mM imidazole buffer (pH 7.2), and thereto was added the above reaction solution in an amount of 50 μl/well. The plate was incubated at 37° C. for 45 minutes, and then washed three times with 50 mM imidazole buffer (pH 7.2) and washed three times with distilled water. 1M diethanolamine (pH 9.8) containing 0.01% magnesium chloride and 1 mg/ml p-nitrophenyl phosphate was put into each well in an amount of 50 μl/well, and the plate was allowed to stand for 1 to 2 hours for color development. The absorbance at 405 nm was measured, and the binding rate (%) was calculated by the following equation, based on the absorbance (X) of the wells containing a test compound at various concentrations and the absorbance (A) of the wells containing no test compound.
(§6) IC50 was evaluated by probit method from the binding rate.

[2] = test system: cell infiltration; assay: Inhibitory effects on the peritoneal inflammation induced by thioglycollate (cell infiltration, MPO activity); type: in vivo, Male BALB/C mice; details: 10 mg/kg, tail vein just before and one hour after induction, peritoneal exudate cells
Protocol: Inhibitory effects on the peritoneal inflammation induced by thioglycollate:
Male BALB/C mice (11-weeks old) were peritoneally injected with 3% thioglycollate medium (1 ml) to induce the inflammation. In the non-inflammation group, saline was peritoneally injected to the mice. Two hours thereafter, the mice were killed with […], and the peritoneal cavity was washed with a phosphate buffered saline containing 0.1% BSA, 0.5 mM EDTA, 10 U/ml heparin to collect the exudate cells. The red blood cells were lysed, and the exudate cells were lysed in 50 mM potassium phosphate buffer containing 0.5% hexadecyltrimethylammonium bromide. The MPO activity in the supernatant was measured according to the Bradley's method (see the above reference).
The test compound was dissolved in 0.0012M arginine-containing saline solution so as to be a concentration of 1 mg/ml. The test compound solution was injected to the mice at the tail vein in a dosage volume of 0.1 ml/10 g of the body weight, at just before and one hour after the induction of inflammation response (the treated group). In the control group, saline solution was injected to the mice.
The cell infiltration inhibitory rate was calculated in the same manner as in Experiment 4, by the equation 3.

[3] = biological target: L-selectin; assay: Inhibitory test on the binding of L-selectin to sialyl Le^X (selectin-IgG chimera); details: inhibition of L-selectin IgG chimera binding to sialyl Le^X-pentaceramide
Protocol: as §1, §2, §3, §4, §5, §6
Inhibitory test on the binding of L-selectin to sialyl Le^X :
The same procedures of Experiment 1 were repeated except that L-selectin IgG chimera (40 μg/ml) was used instead of P-selectin IgG chimera (40 μg/ml).

[4] = Inhibitory effects on ear swelling (ovalbumin-sensitized mice); type: in vivo, Female BALB/c mice; details: tail vein at 2, 5 and 8 hours, 24 hours after induction
Protocol: Inhibitory effects on ear swelling:
(§7) Female BALB/c mice (6-weeks old) were sensitized by intraperitoneal injection of saline (0.5 ml) containing ovalbumin ([…]) and aluminum hydroxide gel (4 mg). Two weeks after the sensitization, a 1 mg/ml solution of ovalbumin in phosphate buffered saline (10 μl) was subcutaneously injected to the mice at both of the ears to induce the inflammatory response. In the non-inflammation group, phosphate buffered saline was subcutaneously injected to the sensitized mice instead.
(§8) The test compound was dissolved in 0.01N-NaOH-saline so as to be a concentration of 1 mg/ml, and the solution was diluted with saline. The test compound solution thus prepared was injected to the mice at the tail vein, at 2, 5 and 8 hours after the induction of inflammatory response, in a dosage volume of 0.1 ml/10 g of body weight (the treated group). In the control group, saline only was injected to the mice.
Twenty-four hours after the induction of inflammatory response, both of the ears were cut to collect a piece of 6 mm diameter, and the weight thereof was measured. The ear weight per area was used as an index for ear swelling. The inhibitory rate on ear swelling was calculated by the following equation. [formula] Wexp: Average ear weight in the treated group Wnega: Average ear weight in the non-inflammation group
Wcont: Average ear weight in the control group

[5] = Oral toxicity observation in mice; type: in vivo; details: 1000 mg/kg orally, observed for one week
Source text: Moreover, the compound (I) of the present invention or a salt thereof show low toxicity. […] Therefore, the compound (I) of the present invention or a salt thereof is useful as a medicament.

[6] = test system: cell infiltration; assay: Inhibitory effects on cell infiltration (MPO activity in ear tissue of Experiment 3); type: in vivo, Female BALB/c mice; details: tail vein at 2, 5 and 8 hours
Protocol: as §7, §8
Inhibitory effects on cell infiltration:
According to the report by Bradley, P. P. et al, (cf., Journal of Investigative Dermatology, 78, 206-209 (1982)), the activity of myeloperoxidase (hereinafter, referred to as MPO) in the tissue was used as an index for cell infiltration.
The ear tissue, the weight of which was measured in Experiment 3, was homogenized, and centrifuged. The MPO activity in the supernatant was measured by using the absorbance at 450 nm (hereinafter, referred to as OD) of o-dianisidine as an index, according to the method of Bradley, et al. (see the above reference).
The inhibitory rate on cell infiltration was calculated by the following equation. [formula] ODexp: Average OD in the treated group ODnega: Average OD in the non-inflammatory group
ODcont: Average OD in the control group

Structure (SMILES) | IC50 [1] [nM] | Cell infiltration inhibitory rate [2] [%] | IC50 [3] [µM] | Ear swelling inhibitory rate ([4]; 0.1 mg/kg) [%] | Ear swelling inhibitory rate ([4]; 1 mg/kg) [%] | Ear swelling inhibitory rate ([4]; 10 mg/kg) [%] | change observed after oral administration [5] | Cell infiltration inhibitory rate ([6]; 0.1 mg/kg) [%] | Cell infiltration inhibitory rate ([6]; 1 mg/kg) [%] | Cell infiltration inhibitory rate ([6]; 10 mg/kg) [%]
CCCCCCCCCCCCCCC(CCCCCCCCCCCCCC)C(=O)N[C@H](CO[C@@H]1O[C@@H](C)[C@@H](O)[C@@H](O)[C@@H]1O)C(=O)N[C@@H](CCC(=O)O)C(=O)NC [compound k, [N-(2-tetradecylhexadecanoyl)-O-(α-L-fucopyranosyl)-D-seryl]-L-glutamic acid 1-methylamide] | 700 | 37 | 9.4 | – | – | – | – | – | – | –
CCCCCCCCCCCCCCC(CCCCCCCCCCCCCC)C(=O)N[C@H](CO[C@@H]1O[C@H]([C@H](C)O)[C@@H](O)[C@@H]1O)C(=O)N[C@@H](CCC(=O)O)C(=O)NC [compound c, [N-(2-tetradecylhexadecanoyl)-O-(α-L-fucofuranosyl)-D-seryl]-L-glutamic acid 1-methylamide] | 300 | 64 | 0.5 | 45 | 59 | 86 | no significant change was observed | 19 | 34 | 64
